Values after ≈ are worked out from the molar mass of the structure shown. Read-outs that look alike come from different tables or passages of the source.
Legend:
[1] = system: C. glabrata YEM-17 (CgCDR overexpressor); assay: microbe, parasite or virus in culture; type: cell-based; parameters: MIC Reduction Factor, fluconazole / MIC Reduction Factor, itraconazole / MIC Reduction Factor, ketoconazole / MIC Reduction Factor, terbinafine: unit not given beside the values; details: for MIC: Nakaseomyces glabratus
C. krusei YEM-71 = assay: Broth dilution checkerboard, azoles and terbinafine with milbemycin α9 (Table 8); type: cell-based; parameters: MIC Reduction Factor, fluconazole / MIC Reduction Factor, itraconazole / MIC Reduction Factor, ketoconazole / MIC Reduction Factor, terbinafine: unit not given beside the values; details: for MIC: Pichia kudriavzevii
[2] = system: S. cerevisiae YEM-1 overexpressing CDR1 (C. albicans); assay: microbe, parasite or virus in culture; type: cell-based; parameters: MIC Reduction Factor, fluconazole: unit not given beside the values; details: for MIC: Saccharomyces cerevisiae
[3] = system: S. cerevisiae YEM-37 overexpressing CDR2 (C. albicans); assay: microbe, parasite or virus in culture; type: cell-based; parameters: MIC Reduction Factor, fluconazole: unit not given beside the values; details: for MIC: Saccharomyces cerevisiae
C. lipolytica = assay: microbe, parasite or virus in culture; type: cell-based; details: strain 828B; MIC (80%) in YPD
C. krusei = assay: microbe, parasite or virus in culture; type: cell-based
[4] = system: S. cerevisiae YEM-1 (CDR1 introduced); assay: microbe, parasite or virus in culture; type: cell-based; details: Saccharomyces cerevisiae, read-out: MIC Mb alone
[5] = system: S. cerevisiae YEM-37 (CDR2 introduced); assay: microbe, parasite or virus in culture; type: cell-based; details: Saccharomyces cerevisiae, read-out: MIC Mb alone
[6] = system: S. cerevisiae YEM-39 (CgCDR introduced); assay: microbe, parasite or virus in culture; type: cell-based; details: Saccharomyces cerevisiae, read-out: MIC Mb alone
[7] = system: S. cerevisiae YEM-38 (FLU1 introduced); assay: microbe, parasite or virus in culture; type: cell-based; details: Saccharomyces cerevisiae, read-out: MIC Mb alone
[8] = system: C. albicans YEM-30 (wild-type, no pump deleted); assay: microbe, parasite or virus in culture; type: cell-based
[9] = system: C. albicans YEM-29 (BEN, FLU1 deleted); assay: microbe, parasite or virus in culture; type: cell-based
[10] = system: C. albicans YEM-27 (CDR1, CDR2, BEN, FLU1 deleted); assay: microbe, parasite or virus in culture; type: cell-based
[11] = system: C. albicans YEM-14 (low level CDR1 expressor); assay: microbe, parasite or virus in culture; type: cell-based
[12] = system: C. albicans YEM-12 (low level CDR1 expressor); assay: microbe, parasite or virus in culture; type: cell-based
[13] = system: C. albicans YEM-11 (BEN overexpressor); assay: microbe, parasite or virus in culture; type: cell-based; details: Candida albicans, read-out: MIC Mb alone
[14] = system: C. albicans YEM-13 (BEN overexpressor); assay: microbe, parasite or virus in culture; type: cell-based; details: Candida albicans, read-out: MIC Mb alone
[15] = system: C. albicans YEM-15 (CDR1 and CDR2 overexpressor); assay: microbe, parasite or virus in culture; type: cell-based; details: Candida albicans, read-out: MIC Mb alone
[16] = system: C. glabrata YEM-18 (low level CgBEN and CgCDR expression); assay: microbe, parasite or virus in culture; type: cell-based
[17] = system: C. glabrata YEM-19 (CgCDR overexpression, higher than YEM-17); assay: microbe, parasite or virus in culture; type: cell-based
[18] = Cytotoxicity TC50 in K-562; type: cell-based; details: human, k-562 cells; compound alone
[19] = system: C. albicans YEM-15 (CDR1 & CDR2 overexpressor); type: cell-based
[20] = system: C. krusei YEM-52 (ATCC 90878), wild type; assay: Minimal concentration to reduce fluconazole MIC sixteen-fold (Table 7); type: cell-based; details: YEM-52, wild type
CDR1 efflux pump = CDR1 efflux pump (Candida albicans, UniProt P43071); assay: Follow-up evaluation of screening hit, efflux pump inhibition; details: follow-up evaluation of screen hit
Protocol: (§1) An exemplary screen uses C. albicans (e.g., ATCC10231) grown in YPD medium (medium described in “Guide to Yeast Genetics and Molecular Biology”, in Methods in Enzymolopy, vol. 194, pp.13, 1991,; Academic Press; Ed. C. Guthrie and G. Fink) at 30° C. […] Test and control cultures are inoculated with log-phase cells to provide approximately 10^3 CFU/ml. Cultures are incubated at 30° C. for 20-22 hrs. Cell concentration is determined by taking the OD600.

BenR pump = BenR pump (Candida albicans, UniProt P28873); assay: as above; details: follow-up evaluation of screen hit
Protocol: as §1

[21] = read-out: Terbinafine MIC in the presence of FEPImax
[22] = YEM-17, milbemycin α9 at FEPImax
[23] = YEM-71, milbemycin α9 at FEPImax
[24] = YEM-1 (CDR1), milbemycin α9 at FEPImax
[25] = YEM-1, milbemycin α9 at FEPImax
[26] = YEM-37 (CDR2), milbemycin α9 at FEPImax
[27] = YEM-37, milbemycin α9 at FEPImax
[28] = Candida albicans, read-out: MIC Mb alone
[29] = Nakaseomyces glabratus, read-out: MIC of milbemycin β1 (MB) alone

Chain of CDR1 efflux pump (P43071 whole entry): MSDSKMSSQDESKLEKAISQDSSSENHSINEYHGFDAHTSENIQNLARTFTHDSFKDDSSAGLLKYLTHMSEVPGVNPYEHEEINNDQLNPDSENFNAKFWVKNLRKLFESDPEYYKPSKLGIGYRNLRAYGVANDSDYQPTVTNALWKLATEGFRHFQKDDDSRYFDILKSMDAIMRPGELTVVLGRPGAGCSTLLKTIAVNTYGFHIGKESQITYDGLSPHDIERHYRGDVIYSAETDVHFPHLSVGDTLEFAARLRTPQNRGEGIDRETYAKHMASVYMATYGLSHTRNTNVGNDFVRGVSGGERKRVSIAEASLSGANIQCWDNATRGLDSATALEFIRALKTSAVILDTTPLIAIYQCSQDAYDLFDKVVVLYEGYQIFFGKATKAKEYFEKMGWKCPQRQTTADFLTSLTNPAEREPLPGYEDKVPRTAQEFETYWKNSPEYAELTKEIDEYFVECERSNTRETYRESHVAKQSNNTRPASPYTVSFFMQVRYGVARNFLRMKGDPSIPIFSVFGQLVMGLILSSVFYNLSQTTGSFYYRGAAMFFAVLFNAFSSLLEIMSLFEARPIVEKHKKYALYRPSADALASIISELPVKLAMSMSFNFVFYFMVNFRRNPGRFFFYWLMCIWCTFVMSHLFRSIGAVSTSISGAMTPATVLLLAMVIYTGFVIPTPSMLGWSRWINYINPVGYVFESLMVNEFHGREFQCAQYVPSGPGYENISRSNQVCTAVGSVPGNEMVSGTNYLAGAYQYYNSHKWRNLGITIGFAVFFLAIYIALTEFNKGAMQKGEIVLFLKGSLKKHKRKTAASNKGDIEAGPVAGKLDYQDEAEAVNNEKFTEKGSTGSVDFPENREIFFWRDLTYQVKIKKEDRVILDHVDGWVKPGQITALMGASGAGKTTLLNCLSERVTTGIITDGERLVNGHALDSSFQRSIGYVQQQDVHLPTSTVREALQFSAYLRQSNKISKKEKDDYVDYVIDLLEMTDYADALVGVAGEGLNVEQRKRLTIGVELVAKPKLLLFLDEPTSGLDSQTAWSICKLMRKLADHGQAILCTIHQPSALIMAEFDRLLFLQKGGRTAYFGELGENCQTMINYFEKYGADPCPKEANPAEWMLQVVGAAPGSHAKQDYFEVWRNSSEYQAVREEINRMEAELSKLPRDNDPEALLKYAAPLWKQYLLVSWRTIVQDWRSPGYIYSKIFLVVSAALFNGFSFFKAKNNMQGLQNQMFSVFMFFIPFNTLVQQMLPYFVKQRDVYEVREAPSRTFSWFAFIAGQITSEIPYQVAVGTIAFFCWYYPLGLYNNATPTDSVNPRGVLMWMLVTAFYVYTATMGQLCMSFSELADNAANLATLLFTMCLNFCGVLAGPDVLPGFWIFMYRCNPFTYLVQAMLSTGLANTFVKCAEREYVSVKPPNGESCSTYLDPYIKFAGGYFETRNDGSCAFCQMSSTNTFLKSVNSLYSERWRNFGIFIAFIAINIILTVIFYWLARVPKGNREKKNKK
Chain of BenR pump (P28873 whole entry): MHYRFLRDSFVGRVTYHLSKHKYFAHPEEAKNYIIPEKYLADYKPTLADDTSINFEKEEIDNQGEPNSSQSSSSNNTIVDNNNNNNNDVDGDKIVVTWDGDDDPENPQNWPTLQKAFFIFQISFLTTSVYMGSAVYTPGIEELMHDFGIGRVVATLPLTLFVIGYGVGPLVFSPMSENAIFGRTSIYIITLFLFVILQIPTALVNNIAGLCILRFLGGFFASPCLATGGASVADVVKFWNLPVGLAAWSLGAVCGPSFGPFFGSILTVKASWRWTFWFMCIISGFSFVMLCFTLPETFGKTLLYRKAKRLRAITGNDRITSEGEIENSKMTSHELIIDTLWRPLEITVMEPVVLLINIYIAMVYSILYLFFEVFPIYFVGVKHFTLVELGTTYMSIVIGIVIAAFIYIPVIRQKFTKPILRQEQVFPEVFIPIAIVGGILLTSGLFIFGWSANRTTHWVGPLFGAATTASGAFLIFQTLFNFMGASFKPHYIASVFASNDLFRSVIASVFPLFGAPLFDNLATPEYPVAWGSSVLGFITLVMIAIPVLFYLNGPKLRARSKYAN

C/C1=C\C[C@@H]2C[C@@H](C[C@]3(CC[C@H](C)[C@@H](C)O3)O2)OC(=O)[C@@H]2C=C(COC(=O)c3ccc[nH]3)[C@@H](O)[C@H]3OC/C(=C\C=C\[C@H](C)C1)[C@]32O [Compound 11, Milbemycin α9]
MIC ([1]; read-out: Milbemycin α9 MIC): > 64 µg/mL
MIC [1, 21]: 4 µg/mL
FEPImax (minimal milbemycin α9 conc. for maximum MIC reduction), fluconazole ([1]; YEM-17): 8 µg/mL
FEPImax (minimal milbemycin α9 conc. for maximum MIC reduction), itraconazole ([1]; YEM-17): 4 µg/mL
FEPImax (minimal milbemycin α9 conc. for maximum MIC reduction), ketoconazole ([1]; YEM-17): 16 µg/mL
FEPImax (minimal milbemycin α9 conc. for maximum MIC reduction), terbinafine ([1]; YEM-17): 4 µg/mL
Fluconazole MIC in the presence of FEPImax [1, 22]: 4 µg/mL
Itraconazole MIC in the presence of FEPImax [1, 22]: 0.125 µg/mL
Ketoconazole MIC in the presence of FEPImax [1, 22]: 0.06 µg/mL
MIC Reduction Factor, fluconazole [1, 22]: 32
MIC Reduction Factor, itraconazole [1, 22]: 1024
MIC Reduction Factor, ketoconazole [1, 22]: 32
MIC Reduction Factor, terbinafine [1, 22]: 32
MIC (C. krusei YEM-71; YEM71, read-out: Milbemycin α9 MIC): > 64 µg/mL
MIC (C. krusei YEM-71; YEM71, read-out: Terbinafine MIC in the presence of FEPImax): 2 µg/mL
FEPImax (minimal milbemycin α9 conc. for maximum MIC reduction), fluconazole (C. krusei YEM-71; YEM-71): 1 µg/mL
FEPImax (minimal milbemycin α9 conc. for maximum MIC reduction), itraconazole (C. krusei YEM-71; YEM-71): 0.25 µg/mL
FEPImax (minimal milbemycin α9 conc. for maximum MIC reduction), ketoconazole (C. krusei YEM-71; YEM-71): 2 µg/mL
FEPImax (minimal milbemycin α9 conc. for maximum MIC reduction), terbinafine (C. krusei YEM-71; YEM-71): 0.008 µg/mL
Fluconazole MIC in the presence of FEPImax (C. krusei YEM-71; [23]): 8 µg/mL
Itraconazole MIC in the presence of FEPImax (C. krusei YEM-71; [23]): 0.008 µg/mL
Ketoconazole MIC in the presence of FEPImax (C. krusei YEM-71; [23]): 0.015 µg/mL
MIC Reduction Factor, fluconazole (C. krusei YEM-71; [23]): 16
MIC Reduction Factor, itraconazole (C. krusei YEM-71; [23]): 64
MIC Reduction Factor, ketoconazole (C. krusei YEM-71; [23]): 128
MIC Reduction Factor, terbinafine (C. krusei YEM-71; [23]): 64
MIC ([2]; read-out: Milbemycin α9 MIC): > 64 µg/mL
MIC [2, 21]: 0.5 µg/mL
FEPImax (minimal milbemycin α9 conc. for maximum MIC reduction), fluconazole ([2]; YEM-1 (CDR1)): 2 µg/mL
FEPImax (minimal milbemycin α9 conc. for maximum MIC reduction), terbinafine ([2]; YEM-1 (CDR1)): 0.5 µg/mL
Pump inhibition (%), fluconazole [2, 24]: 100%
Pump inhibition (%), terbinafine [2, 24]: 100%
Fluconazole MIC in the presence of FEPImax [2, 25]: 0.5 µg/mL
MIC Reduction Factor, fluconazole [2, 25]: 256
MIC ([3]; read-out: Milbemycin α9 MIC): > 64 µg/mL
MIC [3, 21]: 0.5 µg/mL
FEPImax (minimal milbemycin α9 conc. for maximum MIC reduction), fluconazole ([3]; YEM-37 (CDR2)): 1 µg/mL
FEPImax (minimal milbemycin α9 conc. for maximum MIC reduction), terbinafine ([3]; YEM-37 (CDR2)): 4 µg/mL
Pump inhibition (%), fluconazole [3, 26]: 100%
Pump inhibition (%), terbinafine [3, 26]: 100%
Fluconazole MIC in the presence of FEPImax [3, 27]: 0.5 µg/mL
MIC Reduction Factor, fluconazole [3, 27]: 8
Fluconazole MIC, + milbemycin α9 (C. lipolytica): 8 µg/mL
Fluconazole MIC, + milbemycin α9 (C. krusei): 16 µg/mL

CO[C@H]1C[C@@]2(O)/C(CO)=C/C=C/[C@H](C)C/C(C)=C/C[C@@H]3C[C@@H](C[C@]4(CC[C@H](C)[C@@H](C)O4)O3)OC(=O)[C@@H]2C=C1C [Compound 6, Milbemycin β1]
MIC [4]: 8 µg/mL (≈ 14.7 µM)
MIC [5]: 8 µg/mL (≈ 14.7 µM)
MIC [6]: 8 µg/mL (≈ 14.7 µM)
MIC [7]: 8 µg/mL (≈ 14.7 µM)
MIC [8, 28]: 16 µg/mL (≈ 29.4 µM)
MIC of fluconazole, Flu + Mb (2.5 μg/ml) ([8]; YEM-30, milbemycin β1 2.5 μg/ml): 0.125 µg/mL
MIC [9, 28]: 16 µg/mL (≈ 29.4 µM)
MIC of fluconazole, Flu + Mb (2.5 μg/ml) ([9]; YEM-29, BEN, FLU1 deleted, milbemycin β1 2.5 μg/ml): 0.03 µg/mL
MIC [10, 28]: 16 µg/mL (≈ 29.4 µM)
MIC of fluconazole, Flu + Mb (2.5 μg/ml) ([10]; YEM-27, all four pumps deleted, milbemycin β1 2.5 μg/ml): 0.03 µg/mL
Effect on fluconazole susceptibility ([10]; YEM-27, strain which lacked all identified efflux pumps): No effect
MIC [11, 28]: 16 µg/mL (≈ 29.4 µM)
MIC of fluconazole, Flu + Mb (2.5 μg/ml) ([11]; YEM-14, milbemycin β1 2.5 μg/ml): 0.125 µg/mL
MIC [12, 28]: 32 µg/mL (≈ 58.7 µM)
MIC of fluconazole, Flu + Mb (2.5 μg/ml) ([12]; YEM-12, milbemycin β1 2.5 μg/ml): 0.25 µg/mL
MIC [13]: 16 µg/mL (≈ 29.4 µM)
MIC [14]: 32 µg/mL (≈ 58.7 µM)
MIC [15]: 16 µg/mL (≈ 29.4 µM)
MIC [16, 29]: > 64 µg/mL
Fluconazole MIC with 2.5 μg/ml milbemycin β1 ([16]; YEM-18): 2 µg/mL
Fluconazole MIC with 5 μg/ml milbemycin β1 ([16]; YEM-18): 2 µg/mL
Fluconazole MIC with 10 μg/ml milbemycin β1 ([16]; YEM-18): 2 µg/mL
Fluconazole MIC with […] milbemycin β1 ([16]; YEM-18): 2 µg/mL
MIC [17, 29]: > 64 µg/mL
Fluconazole MIC with 2.5 μg/ml milbemycin β1 ([17]; YEM-19): 8 µg/mL
Fluconazole MIC with 5 μg/ml milbemycin β1 ([17]; YEM-19): 2 µg/mL
Fluconazole MIC with 10 μg/ml milbemycin β1 ([17]; YEM-19): 2 µg/mL
Fluconazole MIC with […] milbemycin β1 ([17]; YEM-19): 32 µg/mL
CC50 [18]: 8 µM
Minimal concentration required to reduce the MIC of fluconazole by sixteen-fold [19]: <0.07 µg/mL
Minimal concentration required to reduce the MIC of fluconazole by sixteen-fold [20]: 1.25 µg/mL
Inhibition of the CDR1 efflux pump (CDR1 efflux pump): inhibited the CDR1 efflux pump
Inhibition of the BenR pump (BenR pump): did not appreciably inhibit the BenR pump

Source: US6495591B1, “Fungal efflux pump inhibitors” (Essential Therapeutics, Inc., priority 1997, dated 2002)
